From publication PMC7619385 (ACS infectious diseases, 2025)
Where two headings read alike, the source gives them in different places.

Key:
LmxCLK1 = biological target: T1, LmxCLK1 (Leishmania mexicana, UniProt E9AMP2); test: biochemical; format: binding
T1 sequence (E9AMP2 1-422): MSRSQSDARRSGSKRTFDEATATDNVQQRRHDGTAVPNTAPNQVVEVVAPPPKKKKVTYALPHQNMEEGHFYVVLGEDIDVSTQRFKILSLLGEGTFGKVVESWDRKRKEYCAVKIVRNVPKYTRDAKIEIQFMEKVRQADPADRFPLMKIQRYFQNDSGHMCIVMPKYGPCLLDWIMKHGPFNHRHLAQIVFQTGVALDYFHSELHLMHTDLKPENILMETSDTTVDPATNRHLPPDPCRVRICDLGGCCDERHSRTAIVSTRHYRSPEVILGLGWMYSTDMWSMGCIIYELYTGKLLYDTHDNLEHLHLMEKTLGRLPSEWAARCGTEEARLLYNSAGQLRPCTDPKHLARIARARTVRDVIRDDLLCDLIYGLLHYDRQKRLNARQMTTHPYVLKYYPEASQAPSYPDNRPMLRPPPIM

NLuc::LmxCLK1 = NLuc::LmxCLK1 (Leishmania mexicana, UniProt E9AMP2); test: cell-based; format: cell-based; conditions: for Target occupancy Run 1 / Target occupancy Run 2 / Target occupancy Average: 10 µM compound, tracer SV366, promastigotes; for Target occupancy Average: mean of two experiments
Method in brief: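 NanoBRET tracer displacement in live cells expressing NLuc-tagged CLK1, test compounds at 10 µM fixed, 1% DMSO final. Acceptor/donor emission (610/460 nm) ratio gives mBRET, converted to blank-corrected probe occupancy (%); probe KD from single-site saturation binding fits.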

[1] = DSF, 10 µM compound, 2 µM LmxCLK1, Run 1
[2] = DSF, 10 µM compound, 2 µM LmxCLK1, Run 2
[3] = DSF, 10 µM compound, 2 µM LmxCLK1, mean of two runs
[4] = DSF, 10 µM compound, 2 µM LmxCLK1, Run 1, read-out: ΔTm Run 1
[5] = DSF, 10 µM compound, 2 µM LmxCLK1, Run 2, read-out: ΔTm Run 2
[6] = DSF, 10 µM compound, 2 µM LmxCLK1, mean of two runs, read-out: ΔTm Average
[7] = read-out: Target occupancy Average
[8] = read-out: Target occupancy Run 1
[9] = read-out: Target occupancy Run 2

SMILES | ΔTm Average (LmxCLK1) [°C] | ΔTm Run 1 (LmxCLK1) [°C] | ΔTm Run 2 (LmxCLK1) | Target occupancy Run 1 (NLuc::LmxCLK1) [%] | Target occupancy Run 2 (NLuc::LmxCLK1) [%] | Target occupancy Average (NLuc::LmxCLK1) | ΔTm Run 1 (LmxCLK1; [1]) [°C] | ΔTm Run 2 (LmxCLK1; [2]) [°C] | ΔTm Average (LmxCLK1; [3]) [°C] | ΔTm at 10 µM (LmxCLK1; [4]) [°C] | ΔTm at 10 µM (LmxCLK1; [5]) [°C] | ΔTm at 10 µM (LmxCLK1; [6]) [°C] | receptor occupancy at 10 µM (NLuc::LmxCLK1; [7]) [%] | receptor occupancy at 10 µM (NLuc::LmxCLK1; [8]) [%] | receptor occupancy at 10 µM (NLuc::LmxCLK1; [9]) [%]
COc1ccc(-c2cc3c(C)nc(N)nc3n([C@H]3CC[C@H](OCCO)CC3)c2=O)cn1 [PF-04691502] | 0.2 | 0.3 | 0.1 °C | -3.4 | -25.8 | -14.6% |  |  |  |  |  |  |  |  | 
O=C(/C=C/c1ccc2ccccc2n1)c1ccncc1 [PFK15] | 0.1 | 0.2 | 0.1 °C | -10.7 | -9.2 | -10.0% |  |  |  |  |  |  |  |  | 
CC(C)(C)n1nc(-c2ccc(Cl)cc2)c2c(N)ncnc21 [PP2] | 0 | 0.2 | -0.2 | -3.1 | 0.5 | -1.3% |  |  |  |  |  |  |  |  | 
Nc1ncnc2c1c(-c1cnc3[nH]ccc3c1)nn2C1CCCC1 [PP121] |  |  |  | -0.4 | -14.8 | -7.6% | 0.9 | 0.7 | 0.8 |  |  |  |  |  | 
COc1ccc(Cl)cc1NC(=O)Nc1cc(C)nc2ccccc12 [PQ 401] |  |  |  | -4.0 | 1.2 | -1.4% | 0.0 | -0.2 | -0.1 |  |  |  |  |  | 
CCOc1cc2ncc(C#N)c(Nc3ccc(F)c(Cl)c3)c2cc1NC(=O)/C=C/CN(C)C [Pelitinib (EKB-569), Pelitinib] |  |  |  |  |  | negligible target engagement |  |  |  | 9.1 | 12.5 | 10.8 ± 1.7 |  |  | 
COc1cc(Nc2ncc(F)c(Nc3ccc4c(n3)NC(=O)C(C)(C)O4)n2)cc(OC)c1OC [R406] | 0.4 | 0.4 | 0.3 °C | 6.2 | -5.8 | 0.2% |  |  |  |  |  |  |  |  | 
CNC(=O)c1cc(Oc2ccc(NC(=O)Nc3ccc(Cl)c(C(F)(F)F)c3)c(F)c2)ccn1 [Regorafenib (BAY 73-4506)] |  |  |  | -4.0 | -5.3 | -4.6% | 0.1 | -0.3 | -0.1 |  |  |  |  |  | 
Cn1cc(C2=C(c3ccc(Cl)cc3Cl)C(=O)NC2=O)c2ccccc21 [SB216763] |  |  |  |  |  |  |  |  |  | 0.1 | -0.1 | 0 | -4.4 | 0.9 | -9.6
Cc1[nH]c(/C=C2\C(=O)Nc3ccc(S(=O)(=O)N(C)c4cccc(Cl)c4)cc32)c(C)c1C(=O)N1CCN(C)CC1 [SU11274] |  |  |  |  |  |  |  |  |  | -0.1 | -0.2 | -0.2 | -6.7 | -7.3 | -6
O=C1c2ccc(Nc3ccc(F)cc3F)cc2CCc2ccc(OC[C@H](O)CO)cc21 [Skepinone-L] |  |  |  |  |  |  |  |  |  | 0 | 0.1 | 0.1 | -1.4 | 6.5 | -9.2
CNC(=O)c1ccccc1Nc1nc(Nc2ccc(N3CCOCC3)cc2OC)ncc1Cl [TAE226 (NVP-TAE226)] |  |  |  | -26.7 | -0.7 | -13.7% | 0.2 | -0.1 | 0.0 |  |  |  |  |  | 
CCS(=O)(=O)c1cccc(-c2cc(C(=O)NC3CCN(C)CC3)c(C)c3[nH]c4ncc(C)cc4c23)c1 [TAK-901] |  |  |  |  |  |  |  |  |  | 1.5 | 1.1 | 1.3 | -5.9 | -2.7 | -9.1
CCN1/C(=C/C(C)=O)Sc2ccc(OC)cc21 [TG003] |  |  |  | 10.1 | -15.2 | -2.5% | 1.4 | 1.2 | 1.3 |  |  |  |  |  | 
Cc1ccccc1CN1C(=O)C2=C(CCN(Cc3ccccc3)C2)N2CCN=C12 [TIC10] | 0.2 | 0.2 | 0.2 °C | 4.1 | -6.1 | -1.0% |  |  |  |  |  |  |  |  | 
NC(=O)Nc1sc(-c2ccc(F)cc2)cc1C(N)=O [TPCA-1] |  |  |  | 1.2 | -7.6 | -3.2% | 0.1 | 0.2 | 0.2 |  |  |  |  |  | 
O=C(NCc1ccccc1)c1csc(Nc2ccncn2)n1 [Thiazovivin] |  |  |  | -3.6 | 1.5 | -1.1% | 0.3 | 0.0 | 0.2 |  |  |  |  |  | 
CS(=O)(=O)c1ccc(-c2cnc(N)c(C(=O)Nc3ccccc3)n2)cc1 [VE-821] |  |  |  |  |  |  |  |  |  | -0.2 | -0.5 | -0.4 | -2.9 | -11.1 | 5.3
C[C@@H]1COC(Nc2ccc3ncnc(Nc4ccc(OCc5nccs5)c(Cl)c4)c3c2)=N1 [Varlitinib] |  |  |  |  |  |  |  |  |  | 0.2 | 0 | 0.1 | -0.8 | 2.7 | -4.3
c1cncc(CN2CCC(n3ncc4c(N5CCOCC5)nc(-c5ccc6[nH]ccc6c5)nc43)CC2)c1 [WAY-600] |  |  |  | 4.0 | -10.8 | -3.4% | 0.0 | -0.4 | -0.2 |  |  |  |  |  | 
COc1cc2ncnc(Nc3ccc(O)c(Br)c3)c2cc1OC [WHI-P154] |  |  |  | 7.3 | -12.9 | -2.8% | 0.1 | 0.1 | 0.1 |  |  |  |  |  | 
C[C@H](NC(=O)/C(C#N)=C/c1cccc(Br)n1)c1ccccc1 [WP1066] |  |  |  |  |  |  |  |  |  | 0.1 | 0 | 0 | -7.5 | 3.4 | -18.3
COC[C@H]1OC(=O)c2coc3c2[C@@]1(C)C1=C(C3=O)[C@@H]2CCC(=O)[C@@]2(C)C[C@H]1OC(C)=O [Wortmannin] |  |  |  |  |  |  |  |  |  | 0 | -0.3 | -0.2 | -3.6 | -2.4 | -4.8
COc1ccc(Cl)c(Nc2nc3ccccc3nc2NS(=O)(=O)c2cccc(NC(=O)C(C)(C)N)c2)c1 [XL147] |  |  |  |  |  |  |  |  |  | -0.1 | 0.8 | 0.4 | -5 | -8.3 | -1.7
